Data as given in patent US20230405134A1, “NOVEL PROTAC CHIMERIC COMPOUND, AND PHARMACEUTICAL COMPOSITION COMPRISING SAME FOR PREVENTING, AMELIORATING, OR TREATING DISEASES THROUGH TARGET PROTEIN DEGRADATION” (POSTECH RESEARCH AND BUSINESS DEVELOPMENT FOUNDATION, priority 2020, published 2023).
Where a SMILES comes first, the peptide text is derived from it. Bridges are numbered along the chain shown (N, C = ends). [ ]: non-standard residue; d: D form. Cha = N[C@@H](CC1CCCCC1)C(=O)O; S5 = C=CCCC[C@](C)(N)C(=O)O

Columns and labels:
E-cadherin = E-cadherin mRNA level by RT-qPCR in MDA-MB-231 cells; type: cell-based, human; conditions: 12 hours
Description: (§1) The pharmacological effects on SRC-1 dependent signal transmission were explored using the previously discovered SRC-1 degrading substance. The SRC-1 is overexpressed in various cancers and plays a pivotal role in increasing cell migration and invasion by regulating the expression of related genes. Therefore, when treated with ND1-YL2, an SRC-1 degrading substance, the expression of genes stimulated by SRC-1, such as colony stimulating factor-1 (CSF-1), a gene encoding the cytokine CSF-1 that induces cell differentiation and migration, will be suppressed. To confirm this, MDA-MB-231 cells were treated with DMSO and various concentrations of ND1-YL2, YL2 or N-degron tetrapeptide for 12 hours, and the mRNA level of CSF-1 was normalized to 18S level. Confirmation was made using quantitative real-time polymerase chain reaction (RT-qPCR). MDA-MB-231 cells were seeded at 2×10^5 cells per well. After 24 hours, compounds (YL2, RLAA or ND1-YL2) were treated in Opti-MEM medium for 12 hours. Subsequently, general mRNA isolation was performed using TRI reagent (Takara), and total mRNA was isolated from the cells. The absorbance of total mRNA was measured with a Tecan F200 Nanophotometer, and reverse transcription was performed using AccuPower RocketScript Cycle RT PreMix (Bioneer). Quantitative real-time PCR for CSF-1, E-Cadherin and 18S was performed using a StepOnePlus Real-Time PCR System and SYBR Green mix (Applied Biosystems) according to the manufacturer's manual.
In addition, the effect of the ND1-YL2 on the expression of E-cadherin, a tumor suppressor gene that plays an important role in cell-cell adhesion, was tested. Since SRC-1 protein is known to suppress the E-cadherin expression, the ND1-YL2 will upregulate the E-cadherin by degrading SRC-1.

MDA-MB-231 cells = experiment: Matrigel invasion assay; type: cell-based, human; conditions: 24 hours; ND1-YL2 various concentrations, YL2 and RLAA 20 μM
Method: The inhibition of cell migration may be due to the inhibitory effect of ND1-YL2 on cell growth. In order to exclude this possibility, the invasive ability of cells treated with ND1-YL2 was confirmed. A Corning Matrigel insert (Corning) was placed in a 24-well plate. After hydrating the Matrigel insert with an FBS-free DMEM medium for 2 hours in a CO2 incubator, MDA-MB-231 cells were cultured in the Matrigel insert (4×10^4 cells/insert) with 125 μL of Opti-MEM medium. Another 125 μl of compound containing Opti-MEM medium was added to the insert. The lower chamber was filled with 500 μL of DMEM medium containing 10% FBS. The Matrigel chamber was cultured for 24 hours under the conditions of 37° C. and 5% CO2. The cell culture media of the upper and lower chambers were removed and washed three times with cold DPBS. Non-invasive cells were then removed with a cotton swab. The bottom of the chamber was fixed with 4% formaldehyde for 10 minutes at room temperature, and stained with Hoechst 33342 (5 μg/mL) for 5 minutes in a CO2 incubator. After washed with DPBS, images of infiltrated cells were obtained by a fluorescence microscope. The percentage of the invasive cells was calculated using the product manual. MDA-MB-231 cells were treated with various concentrations of ND1-YL2, N-degron (20 μM) or YL2 (20 μM). After 24 hours, images of the invaded cells were obtained by a fluorescence microscope, and the number of invaded cells was quantified through the images. […] The inhibitory activity of ND1-YL2 on cell migration and invasion is in good agreement with previous SRC-1 knockdown experiments.

CSF-1 = CSF-1 mRNA level by RT-qPCR in MDA-MB-231 cells; type: cell-based, human; conditions: 12 hours
Description: as §1

SRC-1 = SRC-1 (Homo sapiens, UniProt Q15788); experiment: SRC-1 expression level in Colo205 cells by Western blot; type: cell-based; design: endogenous in cells; conditions: Colo205 cells expressing very low levels of CRBN, various concentrations
SRC-1, sequence (Q15788 whole entry): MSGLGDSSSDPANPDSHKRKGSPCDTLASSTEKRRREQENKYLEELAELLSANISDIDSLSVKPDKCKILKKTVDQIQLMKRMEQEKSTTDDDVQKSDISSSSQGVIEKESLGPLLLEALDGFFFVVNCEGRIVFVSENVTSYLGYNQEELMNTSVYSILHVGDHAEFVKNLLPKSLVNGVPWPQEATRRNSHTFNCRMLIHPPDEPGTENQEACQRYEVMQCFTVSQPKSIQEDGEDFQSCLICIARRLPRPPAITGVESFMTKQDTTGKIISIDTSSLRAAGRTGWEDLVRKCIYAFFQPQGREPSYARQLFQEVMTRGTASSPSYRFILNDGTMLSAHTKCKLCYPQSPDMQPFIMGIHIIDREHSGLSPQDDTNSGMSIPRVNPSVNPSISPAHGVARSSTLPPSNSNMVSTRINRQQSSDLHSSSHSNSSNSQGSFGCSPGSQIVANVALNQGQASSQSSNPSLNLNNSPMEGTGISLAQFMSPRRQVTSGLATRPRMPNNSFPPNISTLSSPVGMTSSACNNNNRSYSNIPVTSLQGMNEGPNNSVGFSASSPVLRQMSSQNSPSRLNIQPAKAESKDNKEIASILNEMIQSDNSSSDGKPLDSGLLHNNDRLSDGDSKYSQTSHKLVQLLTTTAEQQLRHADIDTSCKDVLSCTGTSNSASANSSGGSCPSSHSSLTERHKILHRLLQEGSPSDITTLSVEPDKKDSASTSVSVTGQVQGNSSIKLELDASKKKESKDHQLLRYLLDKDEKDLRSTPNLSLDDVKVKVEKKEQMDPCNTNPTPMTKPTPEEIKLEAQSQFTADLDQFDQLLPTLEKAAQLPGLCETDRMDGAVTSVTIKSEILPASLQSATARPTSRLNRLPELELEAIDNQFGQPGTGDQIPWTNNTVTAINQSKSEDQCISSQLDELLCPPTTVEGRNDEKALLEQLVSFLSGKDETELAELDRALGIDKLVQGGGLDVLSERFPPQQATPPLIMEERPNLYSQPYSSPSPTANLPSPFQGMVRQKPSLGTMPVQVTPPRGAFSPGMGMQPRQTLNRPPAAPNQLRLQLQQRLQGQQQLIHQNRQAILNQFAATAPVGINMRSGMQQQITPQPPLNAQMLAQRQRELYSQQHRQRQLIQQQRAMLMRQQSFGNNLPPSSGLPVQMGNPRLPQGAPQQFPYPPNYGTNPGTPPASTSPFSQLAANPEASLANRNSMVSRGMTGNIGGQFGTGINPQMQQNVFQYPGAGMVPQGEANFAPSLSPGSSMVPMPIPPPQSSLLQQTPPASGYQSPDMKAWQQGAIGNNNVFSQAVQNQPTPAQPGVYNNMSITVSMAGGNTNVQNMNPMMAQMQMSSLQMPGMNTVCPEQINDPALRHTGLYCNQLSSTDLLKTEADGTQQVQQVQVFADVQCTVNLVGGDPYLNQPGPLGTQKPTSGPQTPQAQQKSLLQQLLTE
Method: MDA-MB-231 cells were cultured at 37° C. in Dulbecco's modified Eagle's medium (DMEM) supplemented with penicillin-streptomycin containing 10% fetal bovine serum (FBS) and 5% CO2. Colo205 and A549 cells were cultured at 37° C. in Roswell Park Memorial Institute medium supplemented with penicillin-streptomycin with 10% FBS and 5% CO2.
In order to compare the SRC-1 proteolytic activity of ND1-YL2 and CL1-YL2 peptides in cells, A549 cells, which are human lung carcinoma cells, were treated with various concentrations of CL1-YL2, and the effect on SRC-1 degradation was analyzed by Western blot. A549 cells were seeded at 5×10^5 cells per well in a 6-well plate (Corning). Colo205 cells were seeded at 6×10^5 cells per well in a 6-well plate. After incubation at 37° C. for 24 hours, the cells were treated with the synthesized compounds in Opti-MEM medium. The cells were washed twice with cold Dulbecco's phosphate buffered saline (DPBS) prior to cell lysis. In order to lyse the cells, the cells on ice were treated with lysis buffer (50 mM Tris HCl pH 7.4, 150 mM NaCl, 1% TritonX, 1 mM EDTA, 1 mM DTT and 1×protease inhibitor cocktail). The cell lysate was centrifuged at 13,000×rpm for 15 minutes at 4° C. The supernatant was collected and the protein concentration was determined by Pierce™ 660 nm protein assay. […]

In the case of `CC(C)C[C@H](NC(=O)[C@H](C)NC(=O)[C@H](C)NC(=O)[C@H](C)NC(=O)[C@H](C)NC(=O)[C@H](CC(C)C)NC(=O)[C@@H](N)CCCNC(=N)N)C(=O)N[C@@H](CC(C)C)C(=O)N1CCC[C@H]1C(=O)N1CCC[C@H]1C(=O)N[C@H](C(=O)N[C@@H](CCC(=O)O)C(=O)N[C@@H](CCC(N)=O)C(=O)N[C@@H](CC(=O)O)C(=O)N[C@@H](CC(C)C)C(=O)N[C@@]1(C)CCC/C=C\CCC[C@@](C)(C(=O)N[C@@H](Cc2ccc(O)cc2)C(N)=O)NC(=O)[C@H](CC2CCCCC2)NC(=O)[C@H](CC(C)C)NC(=O)[C@H](CCCCN)NC1=O)[C@@H](C)O` [ND1-YL2] (H-RLAAAALLPPTEQDL[S5]KL[Cha][S5]Y-NH2; staple (Z) 16-20), the “Effect on E-cadherin expression (mRNA)” value (E-cadherin) is reported as “dose-dependent increase”, the “Effect on cell invasion” value (MDA-MB-231 cells) is reported as “cell invasion decreased as the treatment concentration of ND1-YL2 increased” and the “Effect on CSF-1 expression (mRNA normalized to 18S)” value (CSF-1) is reported as “downregulated CSF-1 expression”. For the same compound, the “Effect on SRC-1 expression level” value (SRC-1) was “induced a decrease in the expression level of SRC-1 in a dose-dependent manner”.
